Experiments:
[1] = test system: S. aureus DSM 20231; experiment: fitness (endpoint OD595 vs no drug) (fraction); higher = more growth
In short: (§1)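 Fitness was defined as the optical density at the transition into stationary phase relative to the robust mean of no-drug control wells. Values were capped at 1. Cultures were started at OD595 0.01 in 384-well plates (30 µl, or 55 µl for S. pneumoniae) in TSB, LB Lennox or CY at 37 °C. OD595 was recorded every 30 min over 14 h, with the first reading subtracted as background.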

[2] = test system: S. aureus Newman; experiment: as above
In short: as §1

[3] = test system: B. subtilis 168; experiment: Bliss interaction score (quartile over a dose matrix) (fitness difference); higher = more antagonism (negative = synergy)
In short: (§2)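 Fitness was derived from optical density at entry into stationary phase, divided by the robust mean of the no-drug wells on the same plate. That reading was taken as OD595, and the ratio was capped at 1. Single-drug fitness was inferred from the combination data. The Bliss score, observed fitness minus the expected product of single-drug fitness, was summarised as quartiles over technical, biological and donor/recipient replicates.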

[4] = test system: S. aureus DSM 20231; experiment: as above
In short: as §2

[5] = test system: S. aureus Newman; experiment: as above
In short: as §2

[6] = test system: S. pneumoniae D39V; experiment: as above
In short: as §2
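For Bliss interaction score (quartile over a dose matrix) in this document: first quartile when negative (synergy) and third quartile when positive (antagonism).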

O=C(N[C@H](CO)[C@H](O)c1ccc([N+](=O)[O-])cc1)C(Cl)Cl [Chloramphenicol] + C[n+]1ccc(-c2cc[n+](C)cc2)cc1 [Paraquat]
fitness
Details | first compound 0.75 µg/mL | first compound 1.5 µg/mL | first compound 3 µg/mL
[1], partner 1.25 µg/mL | 0.684 | 0.564 | 0.121
[1], partner 2.5 µg/mL | 0.711 | 0.626 | 0.159
[1], partner 5 µg/mL | 0.688 | 0.618 | 0.158
[2], partner 1.25 µg/mL | 0.724 | 0.423 | 0.164
[2], partner 2.5 µg/mL | 0.715 | 0.429 | 0.15
[2], partner 5 µg/mL | 0.739 | 0.476 | –

Details | Bliss interaction score
[3] | 0.0402
[4] | 0.0604
[5] | -0.058
[6] | 0.0595

CCCCCCCCCC(=O)N[C@H]1[C@H](Oc2c3cc4cc2Oc2ccc(cc2Cl)[C@@H](O[C@@H]2O[C@H](CO)[C@@H](O)[C@H](O)[C@H]2NC(C)=O)[C@@H]2NC(=O)[C@H](NC(=O)[C@@H]4NC(=O)[C@H]4NC(=O)[C@@H](Cc5ccc(c(Cl)c5)O3)NC(=O)[C@H](N)c3ccc(O)c(c3)Oc3cc(O)cc4c3)c3ccc(O)c(c3)-c3c(O[C@H]4O[C@H](CO)[C@@H](O)[C@H](O)[C@@H]4O)cc(O)cc3[C@@H](C(=O)O)NC2=O)O[C@H](CO)[C@@H](O)[C@@H]1O [Teicoplanin] + CC1=C\[C@@H](O)CC(=O)Cc2nc(co2)C(=O)N2CCC=C2C(=O)O[C@H](C(C)C)[C@H](C)/C=C/C(=O)NC\C=C\1 [Virginiamycin M1]
fitness, [1], main component drawn
Details | first compound 0.1562 µg/mL | first compound 0.3125 µg/mL | first compound 0.625 µg/mL
partner 0.0625 µg/mL | 0.996 | ≥ 1 | ≥ 1
partner 0.125 µg/mL | ≥ 1 | ≥ 1 | ≥ 1
partner 0.25 µg/mL | ≥ 1 | ≥ 1 | ≥ 1

fitness, one replicate, main component drawn
Details | first compound 0.1562 µg/mL | first compound 0.3125 µg/mL | first compound 0.62 µg/mL | first compound 0.625 µg/mL | first compound 1.24 µg/mL | first compound 2.48 µg/mL
[1], partner 0.5 µg/mL | ≥ 1 | ≥ 1 | – | ≥ 1 | – | –
[1], partner 1 µg/mL | 0.864 | 0.861 | – | ≥ 1 | – | –
[2], partner 0.0625 µg/mL | ≥ 1 | 0.97 | 0.773 | 0.843 | 0.78 | 0.473
[2], partner 0.125 µg/mL | ≥ 1 | ≥ 1 | 0.784 | 0.774 | 0.764 | 0.529
[2], partner 0.25 µg/mL | ≥ 1 | ≥ 1 | 0.831 | 0.839 | 0.766 | 0.486
[2], partner 0.5 µg/mL | 0.945 | 0.989 | – | ≥ 1 | – | –
[2], partner 1 µg/mL | ≥ 1 | 0.971 | – | ≥ 1 | – | –
[2], partner 2 µg/mL | 0.876 | 0.951 | – | ≥ 1 | – | –

main component drawn
Details | Bliss interaction score
[3] | 0.117
[4] | 0.101
[5] | 0.0746
[6] | 0.262

O=C(N[C@H](CO)[C@H](O)c1ccc([N+](=O)[O-])cc1)C(Cl)Cl [Chloramphenicol] + CCN(CC)CCOC(=O)c1ccc(N)cc1 [Procaine]
fitness
Details | partner 85.5 µg/mL | partner 171 µg/mL | partner 342 µg/mL
[1], first compound 0.75 µg/mL | 0.675 | – | 0.753
[1], first compound 1.5 µg/mL | 0.516 | 0.57 | 0.538
[1], first compound 3 µg/mL | 0.0915 | 0.0967 | 0.0943
[2], first compound 0.75 µg/mL | 0.783 | 0.787 | 0.793
[2], first compound 1.5 µg/mL | 0.531 | 0.559 | 0.577

Details | Bliss interaction score
[3] | -0.0897
[4] | -0.0791
[5] | 0.0594
[6] | -0.0498

O=C(N[C@H](CO)[C@H](O)c1ccc([N+](=O)[O-])cc1)C(Cl)Cl [Chloramphenicol] + C[C@@H]1O[C@@H]1P(=O)(O)O [Fosfomycin]
fitness
Details | first compound 0.75 µg/mL | first compound 1.5 µg/mL | first compound 3 µg/mL
[1], partner 0.781 µg/mL | 0.633 | 0.473 | 0.116
[1], partner 1.562 µg/mL | 0.558 | 0.402 | 0.0874
[1], partner 3.124 µg/mL | 0.436 | 0.265 | 0.0652
[2], partner 0.781 µg/mL | 0.491 | 0.394 | 0.117
[2], partner 1.562 µg/mL | 0.452 | 0.272 | 0.0456
[2], partner 3.124 µg/mL | 0.117 | 0.0322 | 0.0343

Details | Bliss interaction score
[3] | 0.129
[4] | 0.0517
[5] | -0.108
[6] | 0.0635

O=C(N[C@H](CO)[C@H](O)c1ccc([N+](=O)[O-])cc1)C(Cl)Cl [Chloramphenicol] + CN1C2=CC=CC=C2N=C3C1=CC=CC3=O [Pyocyanin]
fitness
Details | first compound 0.75 µg/mL | first compound 1.5 µg/mL | first compound 3 µg/mL
[1], partner 1.25 µg/mL | 0.645 | – | 0.0788
[1], partner 2.5 µg/mL | – | 0.321 | –
[1], partner 5 µg/mL | – | 0.332 | 0.0653
[2], partner 1.25 µg/mL | 0.741 | 0.5 | 0.174
[2], partner 2.5 µg/mL | 0.725 | 0.41 | 0.137
[2], partner 5 µg/mL | 0.333 | 0.173 | 0.0578

Details | Bliss interaction score
[3] | 0.049
[4] | -0.0896
[5] | -0.0632
[6] | 0.0521

CCC[C@@H]1C[C@@H](C(=O)N[C@@H]([C@H]2O[C@H](SC)[C@H](O)[C@@H](O)[C@H]2O)[C@H](C)Cl)N(C)C1 [Clindamycin] + CCCCCCCCCC(=O)N[C@@H]1[C@H]([C@@H]([C@H](O[C@H]1OC2=C3C=C4C=C2OC5=C(C=C(C=C5)[C@H]([C@H]6C(=O)N[C@@H](C7=C(C(=CC(=C7)O)OC8[C@H]([C@H]([C@@H]([C@H](O8)CO)O)O)O)C9=C(C=CC(=C9)[C@H](C(=O)N6)NC(=O)[C@@H]4NC(=O)[C@@H]1C2=CC(=CC(=C2)OC2=C(C=CC(=C2)[C@H](C(=O)N[C@H](CC2=CC(=C(O3)C=C2)Cl)C(=O)N1)N)O)O)O)C(=O)O)O[C@H]1[C@@H]([C@H]([C@@H]([C@H](O1)CO)O)O)NC(=O)C)Cl)CO)O)O [Teicoplanin]
fitness, main component drawn
Details | partner 0.1562 µg/mL | partner 0.3125 µg/mL | partner 0.625 µg/mL
[1], first compound 0.125 µg/mL | 0.0489 | 0.0449 | 0.0526
[2], first compound 0.0312 µg/mL | 0.679 | 0.864 | 0.854
[2], first compound 0.0625 µg/mL | 0.448 | 0.431 | 0.483
[2], first compound 0.125 µg/mL | 0.0629 | 0.0636 | 0.0614

fitness, [2], one replicate, main component drawn
Details | first compound 0.0312 µg/mL | first compound 0.0625 µg/mL | first compound 0.125 µg/mL
partner 0.62 µg/mL | 0.86 | 0.74 | 0.358
partner 1.24 µg/mL | 0.938 | 0.839 | 0.307
partner 2.48 µg/mL | 0.755 | 0.726 | 0.154

main component drawn
Details | Bliss interaction score
[3] | -0.117
[4] | 0.0389
[5] | 0.137
[6] | -0.0604

From the supplement of paper PMC10627819
